US20090036422A1 (priority 2007, published 2009)
Counter-ions that a name gives are not always drawn.

Target: T1, human orexin-2 (hOX2) receptor (Homo sapiens, UniProt O43614)
T1 construct: expressed in transfected cells
T1 sequence (O43614 1-444): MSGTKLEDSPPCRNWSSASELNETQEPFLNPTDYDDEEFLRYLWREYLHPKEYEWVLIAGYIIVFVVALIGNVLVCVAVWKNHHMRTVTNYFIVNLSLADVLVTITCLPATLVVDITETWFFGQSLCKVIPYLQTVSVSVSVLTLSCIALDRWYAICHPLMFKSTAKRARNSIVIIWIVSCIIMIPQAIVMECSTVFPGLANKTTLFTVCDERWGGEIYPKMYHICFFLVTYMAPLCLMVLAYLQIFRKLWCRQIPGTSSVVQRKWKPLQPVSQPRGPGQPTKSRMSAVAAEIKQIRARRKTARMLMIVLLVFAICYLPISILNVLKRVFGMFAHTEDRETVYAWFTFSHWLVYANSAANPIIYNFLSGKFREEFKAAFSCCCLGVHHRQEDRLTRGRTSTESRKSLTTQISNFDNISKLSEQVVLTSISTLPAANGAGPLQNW
Assay: Intracellular Ca2+ mobilization assay (FLIPR), CHO(dHFr-) cells expressing hOX2, orexin-A at EC80 as agonist
Type: cell-based
Settings: Kb=IC50/(1+[A]/EC50); CHO(dHFr-)-OX2R cells, antagonist applied 25 min before orexin-A EC80
Description: Intracellular Ca^2+ Mobilization Assay
The Chinese Hamster Ovary (dHFr−) mutant cell line stably expressing human orexin-1 (hOX1) or human orexin-2 (hOX2) receptors were maintained in Dulbecco's Modified Eagle Medium (1×) with GlutaMax™ 1, 4500 mg/L D-Glucose and Sodium Pyruvate (Catalog No. 31966-021, Invitrogen, Carlsbad, Calif.), 5% dialyzed fetal calf serum (Catalog No. 26400-044), 100 μg/ml penicillin and 100 μg/ml streptomycin. The cells were seeded at 5×10^4 cells/well in the poly-D-lysine treated, 96-well, black/clear-bottomed plates (Catalog No. BD356640, BD Biosciences, Palo Alto, Calif.). 24 h later, the cells were loaded for 1 h at 37° C. with 4 μM Flou-4 acetoxymethyl ester (Catalog No. F-14202, Molecular Probes, Eugene, Oreg.) in FLIPR buffer (1×HBSS, 20 mM HEPES, 2.5 mM Probenecid). Hanks' Balanced Salt Solution (HBSS) (10×) (catalog No. 14065-049) and HEPES (1M) (catalog No. 15630-056) were purchased from Invitrogen, Carlsbad, Calif. Probenecid (250 mM) (catalog No. P8761) was from Sigma, Buchs, Switzerland. The cells were washed five times with FLIPR buffer to remove excess dye and intracellular calcium mobilization, [Ca^2+]i were measured using a Fluorometric Imaging Plate Reader (FLIPR-96, Molecular Devices, Menlo Park, Calif.) as described previously (Malherbe et al., Mol. Pharmacol., 64, 823-832, 2003). Orexin A (catalog No. 1455, Toris Cookson Ltd, Bristol, UK) was used as agonist. Orexin A (50 mM stock solution in DMSO) was diluted in FLIPR buffer +0.1% BSA. The EC50 and EC80 values of orexin-A were measured daily from standard agonist concentration-response curves in CHO(dHFr−) —OX1R and —OX2R cell lines. All compounds were dissolved in 100% DMSO. Inhibition curves were determined by addition of 11 concentrations (0.0001-10 μM) of inhibitory compounds and using EC80 value of orexin-A as agonist (a concentration which gave 80% of max agonist response, determined daily). The antagonists were applied 25 min (incubation at 37° C.) before the application of the agonist. Responses were measured as peak increase in fluorescence minus basal, normalized to the maximal stimulatory effect induced by EC80 value of orexin-A or orexin-B. Inhibition curves were fitted according to the Hill equation: y=100/(1+(x/IC50)^nH), where nH=slope factor using Excel-fit 4 software (Microsoft).
Kb values were calculated according to the following equation Kb=IC50/(1+[A]/EC50) where A is the concentration of agonist added which is very close to agonist EC80 value, and IC50 and EC50 values were derived from the antagonist inhibition and orexin-A or B agonist curves, respectively.

Row | Compound | Kb [µM]
1 | Cc1ccc(N(CCc2ccc(C(F)(F)F)cc2)C(=O)Cn2c(C)nc3ccccc32)cc1C [Example 236, N-(3,4-Dimethyl-phenyl)-2-(2-methyl-benzoimidazol-1-yl)-N-[2-(4-trifluoromethyl-phenyl)-ethyl]-acetamide] | 0.076
2 | Cc1ccc(N(CCc2cc(Cl)ccc2Cl)C(=O)[C@@H](N)c2ccccc2)cc1C [Example 203, (S)-2-Amino-N-[2-(2,5-dichloro-phenyl)-ethyl]-N-(3,4-dimethyl-phenyl)-2-phenyl-acetamide hydrochloride] | 0.0996
3 | Cc1ccc(CCN(C(=O)C(N)c2ccccc2)c2ccc(F)c(C)c2)cc1 (stereo not shown) [Example 88, 2-Amino-N-(4-fluoro-3-methyl-phenyl)-2-phenyl-N-(2-p-tolyl-ethyl)-acetamide] | 0.0819
4 | COc1ccc(N(CCc2ccc(C(F)(F)F)cc2)C(=O)[C@@H](N)c2ccccc2)cc1OC [Example 173, (S)-2-Amino-N-(3,4-dimethoxy-phenyl)-2-phenyl-N-[2-(4-trifluoromethyl-phenyl)-ethyl]-acetamide hydrochloride] | 0.0011
5 | N[C@H](C(=O)N(CCc1ccc(C(F)(F)F)cc1)c1ccc(OC(F)F)cc1)c1ccccc1 [Example 148, (S)-2-Amino-N-(4-difluoromethoxy-phenyl)-2-phenyl-N-[2-(4-trifluoromethyl-phenyl)-ethyl]-acetamide] | 0.0217
6 | Cc1ccc(N(CCc2cccc(Cl)c2)C(=O)[C@@H](N)c2ccccc2)cc1C [Example 183, (S)-2-Amino-N-[2-(3-chloro-phenyl)-ethyl]-N-(3,4-dimethyl-phenyl)-2-phenyl-acetamide hydrochloride] | 0.0496
7 | N[C@H](C(=O)N(CCc1ccc(F)cc1)c1ccc2c(c1)CCO2)c1ccccc1 [Example 239, (S)-2-Amino-N-(2,3-dihydro-benzofuran-5-yl)-N-[2-(4-fluoro-phenyl)-ethyl]-2-phenyl-acetamide hydrochloride] | 0.025
8 | Cc1ccc(N(CCc2ccc(F)c(F)c2)C(=O)C(N)c2ccc(Cl)s2)cc1C (stereo not shown) [Example 214, 2-Amino-2-(5-chloro-thiophen-2-yl)-N-[2-(3,4-difluoro-phenyl)-ethyl]-N-(3,4-dimethyl-phenyl)-acetamide hydrochloride] | 0.0966
9 | Cc1ccc(N(CCc2ccc(C(F)(F)F)c(F)c2F)C(=O)[C@@H](N)c2ccccc2)cc1C [Example 197, (S)-2-Amino-N-[2-(2,3-difluoro-4-trifluoromethyl-phenyl)-ethyl]-N-(3,4-dimethyl-phenyl)-2-phenyl-acetamide hydrochloride] | 0.0067
10 | COc1ccc(N(CCc2ccc(C(F)(F)F)cc2)C(=O)C(N)c2ccccc2)cc1OC (stereo not shown) [Example 45, 2-Amino-N-(3,4-dimethoxy-phenyl)-2-phenyl-N-[2-(4-trifluoromethyl-phenyl)-ethyl]-acetamide] | 0.0018
11 | CCOC(C(=O)N(CCc1ccc(C(F)(F)F)cc1)c1ccc(C)c(C)c1)c1ccccc1 (racemic) [Example 221, (R,S)—N-(3,4-Dimethyl-phenyl)-2-ethoxy-2-phenyl-N-[2-(4-trifluoromethyl-phenyl)-ethyl]-acetamide] | 0.0834
12 | COCC(C)NC(C(=O)N(CCc1ccc(C)cc1)c1ccc(C)c(C)c1)c1ccccc1 (stereo not shown) [Example 120, N-(3,4-Dimethyl-phenyl)-2-(2-methoxy-1-methyl-ethylamino)-2-phenyl-N-(2-p-tolyl-ethyl)-acetamide] | 0.0446
13 | COc1ccc(N(CCc2ccc(C(F)(F)F)cc2)C(=O)C(N)c2ccccc2)cc1Cl (stereo not shown) [Example 66, 2-Amino-N-(3-chloro-4-methoxy-phenyl)-2-phenyl-N-[2-(4-trifluoromethyl-phenyl)-ethyl]-acetamide] | 0.013
14 | COc1cccc(N(CCc2ccc(C(F)(F)F)cc2)C(=O)[C@@H](N)c2ccc(F)cc2)c1 [Example 160] | 0.0291
15 | Cc1ccc(CCN(C(=O)[C@@H](N)c2ccc(F)cc2)c2ccc(C)c(C)c2)cc1 [Example 144, (S)-2-Amino-N-(3,4-dimethyl-phenyl)-2-(4-fluoro-phenyl)-N-(2-p-tolyl-ethyl)-acetamide] | 0.0174
16 | Cc1ccc(N(CCc2ccc(C(F)(F)F)c(F)c2)C(=O)[C@@H](N)c2ccccc2)cc1C [Example 186, (S)-2-Amino-N-(3,4-dimethyl-phenyl)-N-[2-(3-fluoro-4-trifluoromethyl-phenyl)-ethyl]-2-phenyl-acetamide hydrochloride] | 0.0156
17 | Cc1ccc(N(CCc2cc(F)cc(F)c2)C(=O)[C@@H](N)c2ccccc2)cc1C [Example 208, (S)-2-Amino-N-[2-(3,5-difluoro-phenyl)-ethyl]-N-(3,4-dimethyl-phenyl)-2-phenyl-acetamide hydrochloride] | 0.0231
18 | N[C@H](C(=O)N(CCc1ccc(C(F)(F)F)cc1)c1ccc2c(c1)CCCC2)c1ccccc1 [Example 150, (S)-2-Amino-2-phenyl-N-(5,6,7,8-tetrahydro-naphthalen-2-yl)-N-[2-(4-trifluoromethyl-phenyl)-ethyl]-acetamide] | 0.0682
19 | COc1ccc(N(CCc2ccc(C(F)(F)F)cc2)C(=O)C(N)c2ccc(F)cc2)cc1OC (stereo not shown) [Example 61, 2-Amino-N-(3,4-dimethoxy-phenyl)-2-(4-fluoro-phenyl)-N-[2-(4-trifluoromethyl-phenyl)-ethyl]-acetamide] | 0.0025
20 | COc1ccc(C(O)C(=O)N(CCc2ccc(C(F)(F)F)cc2)c2ccc(OC)c(OC)c2)cc1O (stereo not shown) [Example 27, N-(3,4-dimethoxyphenyl)-2-hydroxy-2-(3-hydroxy-4-methoxyphenyl)-N-{2-[4-(trifluoromethyl)phenyl]ethyl}acetamide] | 0.0737
21 | COc1ccc(N(CCc2ccc(C(F)(F)F)cc2)C(=O)C(N)c2ccccc2OC)cc1F (stereo not shown) [Example 42] | 0.0559
22 | COc1ccccc1CCN(C(=O)[C@@H](N)c1ccccc1)c1ccc(C)c(C)c1 [Example 194, (S)-2-Amino-N-(3,4-dimethyl-phenyl)-N-[2-(2-methoxy-phenyl)-ethyl]-2-phenyl-acetamide hydrochloride] | 0.0052
23 | COc1ccc(CCN(C(=O)C(N)c2ccccc2)c2ccc(OC(F)(F)F)cc2)cc1OC (stereo not shown) [Example 78, 2-Amino-N-[2-(3,4-dimethoxy-phenyl)-ethyl]-2-phenyl-N-(4-trifluoromethoxy-phenyl)-acetamide] | 0.0444
24 | COc1ccccc1CC(=O)N(CCc1ccc(C(F)(F)F)cc1)c1ccc(OC)c(OC)c1 [Example 14, N-(3,4-dimethoxyphenyl)-2-(2-methoxyphenyl)-N-{2-[4-(trifluoromethyl)phenyl]ethyl}acetamide] | 0.0342
25 | COc1cc(N(CCc2ccc(C(F)(F)F)cc2)C(=O)[C@@H](N)c2ccccc2)ccc1C [Example 162, (S)-2-Amino-N-(3-methoxy-4-methyl-phenyl)-2-phenyl-N-[2-(4-trifluoromethyl-phenyl)-ethyl]-acetamide] | 0.0151
26 | Cc1ccc(CCN(C(=O)C(NC(C)CO)c2ccccc2)c2ccc(C)c(C)c2)cc1 (stereo not shown) [Example 122, N-(3,4-Dimethyl-phenyl)-2-(2-hydroxy-1-methyl-ethylamino)-2-phenyl-N-(2-p-tolyl-ethyl)-acetamide] | 0.0225
27 | COc1ccc(N(CCc2ccc(C(F)(F)F)cc2)C(=O)[C@H](N)c2ccccc2)cc1OC (single isomer, unassigned) [Example 174] | 0.046
28 | Cc1cccc(N(CCc2ccc(C(F)(F)F)cc2)C(=O)C(N)c2ccccc2)c1 (stereo not shown) [Example 70, 2-Amino-2-phenyl-N-m-tolyl-N-[2-(4-trifluoromethyl-phenyl)-ethyl]-acetamide] | 0.0579
